Laboratory results taken from US11357779B2 (G1 Therapeutics, Inc., priority 2018, dated 2022).
Where two headings read alike, the source gives them in different places.

Test: Plasma concentration versus time of Compound I and metabolite Compound III in patients dosed QD or BID with Form B of Compound II plus fulvestrant
Type: in vivo, human
Conditions: human, plasma, oral, 650 mg; for concentration at 8 day: Day 8; for concentration at 15 day: Day 15; for concentration at 22 day: Day 22; for concentration at 0 h: Day 29, 0.0 h; for concentration at 1 h: Day 29, 1.0 h; for concentration at 2 h: Day 29, 2.0 h; for concentration at 3 h: Day 29, 3.0 h; for concentration at 4 h: Day 29, 4.0 h; for concentration at 6 h: Day 29, 6.0 h
Text: Patients were enrolled into 1 of 2 parallel, independently operating, dose-escalation dosing cohorts with Form B of Compound II administered continuously either once daily (QD) or twice daily (BID) with food with fixed-dose fulvestrant (intramuscularly every 14 days for the first three injections and then every 28 days). Pre- or perimenopausal patients also received goserelin for the duration of study treatment. A […] agonist was started at least 28 days before the first dose of Form B, and those patients who were taking another LHRH agonist were switched to goserelin on Day 1. Patients were split into […] cohorts providing once a day (QD) dosing of 200 mg, 300 mg, 400 mg, 500 mg, or 650 mg of Form B, or twice a day (BID) dosing of 100 mg, 150 mg, or 200 mg of Form B. The second dose in BID cohorts was not administered in the evening until at least 12 hours after the initial morning dose of Form B. The dosing cohorts for Form B of Compound II are provided in Table 1.
Blood samples were collected at the following time points relative to the morning dose of Form B at Day 1 and at Day 29: pre-dose (0 hour) and 1, 2, 3, 4, 6, 8, 10, 12 (prior to the evening dose in the BID cohorts), and 24 (prior to the next day's morning dose) hours after dosing. A 5-minute time window was allowed for samples collected between the predose and 3 hours after Form B dosing. A 15-minute window was allowed for samples collected between 4 to 12 hours after Form B dosing. A 1-hour window was allowed for the sample collected 24 hours after Form B dosing. Blood samples for Compound I PK trough levels were collected pre-dose at Day 8, Day 15, and Day 22 prior to the morning administration of Compound I. Plasma concentrations of Compound I and its metabolite, Compound III, were measured using validated methods.
Analysis of plasma concentration versus time data for calculation of standard pharmacokinetic (PK) parameters following oral administration was conducted using Phoenix WinNonlin version 6.3 using actual blood sampling times.

[1] = Cohort 5, 650 mg QD of Form B, read-out: Trough Compound I Concentration, Max
[2] = Cohort 5, 650 mg QD of Form B, read-out: Trough Compound I Concentration, Mean
[3] = Cohort 5, 650 mg QD of Form B, read-out: Trough Compound I Concentration, Median
[4] = Cohort 5, 650 mg QD of Form B, read-out: Trough Compound I Concentration, Min
[5] = Cohort 5, 650 mg QD of Form B, read-out: Compound I Concentration, Max
[6] = Cohort 5, 650 mg QD of Form B, read-out: Compound I Concentration, Mean
[7] = Cohort 5, 650 mg QD of Form B, read-out: Compound I Concentration, Median
[8] = Cohort 5, 650 mg QD of Form B, read-out: Compound I Concentration, Min

SMILES: CC(C)N1CCN(c2ccc(Nc3ncc4cc5n(c4n3)C3(CCCCC3)CNC5=O)nc2)CC1 [Compound I, 2′-((5-(4-isopropylpiperazin-1-yl)pyridin-2-yl)amino)-7′,8′-dihydro-6′H-spiro[cyclohexane-1,9′-pyrazino[1′,2′:1,5]pyrrolo[2,3-d]pyrimidin]-6′-one]
- concentration at 8 h (650 mg QD of Form B, Day 1, 8.0 h, Median, read-out: Compound I Concentration): 60.3 ng/mL
- concentration at 10 h (650 mg QD of Form B, Day 1, 10.0 h, Mean, read-out: Compound I Concentration): 48.4 ng/mL
- concentration at 10 h (650 mg QD of Form B, Day 1, 10.0 h, Median, read-out: Compound I Concentration): 47.9 ng/mL
- concentration at 12 h (650 mg QD of Form B, Day 1, 12.0 h, Mean, read-out: Compound I Concentration): 37.4 ng/mL
- concentration at 12 h (650 mg QD of Form B, Day 1, 12.0 h, Median, read-out: Compound I Concentration): 37.3 ng/mL
- concentration at 24 h (650 mg QD of Form B, Day 1, […], Mean, read-out: Compound I Concentration): 17.1 ng/mL
- concentration at 24 h (650 mg QD of Form B, Day 1, […], Median, read-out: Compound I Concentration): 16 ng/mL
- concentration at 8 day [1]: 43.9 ng/mL
- concentration at 8 day [2]: 28.9 ng/mL
- concentration at 8 day [3]: 28.3 ng/mL
- concentration at 8 day [4]: 17 ng/mL
- concentration at 15 day [1]: 30.7 ng/mL
- concentration at 15 day [2]: 25.7 ng/mL
- concentration at 15 day [3]: 27.4 ng/mL
- concentration at 15 day [4]: 19.1 ng/mL
- concentration at 22 day [1]: 43.7 ng/mL
- concentration at 22 day [2]: 30.3 ng/mL
- concentration at 22 day [3]: 24 ng/mL
- concentration at 22 day [4]: 23.3 ng/mL
- concentration at 0 h [5]: 28.9 ng/mL
- concentration at 0 h [6]: 20.9 ng/mL
- concentration at 0 h [7]: 22.5 ng/mL
- concentration at 0 h [8]: 11.4 ng/mL
- concentration at 1 h [5]: 29.6 ng/mL
- concentration at 1 h [6]: 20.9 ng/mL
- concentration at 1 h [7]: 20.9 ng/mL
- concentration at 1 h [8]: 12.1 ng/mL
- concentration at 2 h [5]: 34.9 ng/mL
- concentration at 2 h [6]: 25.9 ng/mL
- concentration at 2 h [7]: 25.9 ng/mL
- concentration at 2 h [8]: 16.8 ng/mL
- concentration at 3 h [5]: 39.5 ng/mL
- concentration at 3 h [6]: 28.4 ng/mL
- concentration at 3 h [7]: 28.4 ng/mL
- concentration at 3 h [8]: 17.2 ng/mL
- concentration at 4 h [5]: 43.8 ng/mL
- concentration at 4 h [6]: 33.1 ng/mL
- concentration at 4 h [7]: 33.1 ng/mL
- concentration at 4 h [8]: 22.3 ng/mL
- concentration at 6 h [5]: 79.3 ng/mL
- concentration at 6 h [6]: 58.8 ng/mL
- concentration at 6 h [7]: 58.8 ng/mL
- concentration at 6 h [8]: 38.2 ng/mL
- concentration at 8 h (Cohort 5, 650 mg QD of Form B, Day 29, 8.0 h, read-out: Compound I Concentration, Max): 88.7 ng/mL
- concentration at 8 h (Cohort 5, 650 mg QD of Form B, Day 29, 8.0 h, read-out: Compound I Concentration, Mean): 66 ng/mL
- concentration at 8 h (Cohort 5, 650 mg QD of Form B, Day 29, 8.0 h, read-out: Compound I Concentration, Median): 66 ng/mL
- concentration at 8 h (Cohort 5, 650 mg QD of Form B, Day 29, 8.0 h, read-out: Compound I Concentration, Min): 43.2 ng/mL
- concentration at 10 h (Cohort 5, 650 mg QD of Form B, Day 29, 10.0 h, read-out: Compound I Concentration, Max): 78.2 ng/mL
- concentration at 10 h (Cohort 5, 650 mg QD of Form B, Day 29, 10.0 h, read-out: Compound I Concentration, Mean): 58.1 ng/mL
- concentration at 10 h (Cohort 5, 650 mg QD of Form B, Day 29, 10.0 h, read-out: Compound I Concentration, Median): 58.1 ng/mL
- concentration at 10 h (Cohort 5, 650 mg QD of Form B, Day 29, 10.0 h, read-out: Compound I Concentration, Min): 37.9 ng/mL
- concentration at 12 h (Cohort 5, 650 mg QD of Form B, Day 29, 12.0 h, read-out: Compound I Concentration, Max): 63.2 ng/mL
- concentration at 12 h (Cohort 5, 650 mg QD of Form B, Day 29, 12.0 h, read-out: Compound I Concentration, Mean): 46.3 ng/mL
- concentration at 12 h (Cohort 5, 650 mg QD of Form B, Day 29, 12.0 h, read-out: Compound I Concentration, Median): 46.3 ng/mL
- concentration at 12 h (Cohort 5, 650 mg QD of Form B, Day 29, 12.0 h, read-out: Compound I Concentration, Min): 29.4 ng/mL
- concentration at 24 h (Cohort 5, 650 mg QD of Form B, Day 29, […], read-out: Compound I Concentration, Max): 27.8 ng/mL
- concentration at 24 h (Cohort 5, 650 mg QD of Form B, Day 29, […], read-out: Compound I Concentration, Mean): 24.3 ng/mL
- concentration at 24 h (Cohort 5, 650 mg QD of Form B, Day 29, […], read-out: Compound I Concentration, Median): 24.3 ng/mL
- concentration at 24 h (Cohort 5, 650 mg QD of Form B, Day 29, […], read-out: Compound I Concentration, Min): 20.7 ng/mL
